The text below walks through data of US5233031A, “Phosphoramidate analogs of 2'-deoxyuridine” (University of Rochester, priority 1991, dated 1993).

Common to all, as to assay type: cell-based
The subject of one data set is B16 melanoma cells. As to the kind of experiment: Cytotoxicity against B16 melanoma cells (clonogenic assay). Particulars: read-out: LC-99 (concentration of compound required to kill 99% of B16 melanoma cells). Here is the method:
^a Concentration of compound required to kill 99% of B16 melanoma
cells in a clonogenic assay. Cells were treated with the compound for 2
B16 cells in exponential growth (2-3×10^6 cells in 10 ml of serum-free MEM medium) were treated with drug for 2 hr. The cells were separated, washed, and resuspended in MEM medium supplemented with 10% fetal bovine serum. The cells were plated in 60-mm culture dishes at a density of 50-50,000 cells/plate (depending upon the drug concentration used initially) and then incubated for 8 days in a CO2 incubator at 37° C. The colonies were fixed and stained with 0.5% crystal violet in ethanol and counted.

In data set [1] the test system is L1210 leukemia cells. As to the kind of experiment: Growth inhibition against L1210 leukemia cells in vitro. Particulars: for IC50: Mus musculus. Here is the method: In addition to the B16 melanoma cell assay summarized in Table I, compounds 1a-e, 5 and 7 were evaluated for growth inhibitory activity against L1210 leukemia cells. Stock solutions of the compounds were prepared in 95% ethanol, and serial dilutions of drug were prepared in ethanol such that 50 μl of drug solution added to 10 ml of cell suspension gave the desired final concentration. L1210 cells in exponential growth were suspended in Fischer's medium supplemented with 10% horse serum, 1% glutamine, and 1% antibiotic-antimycotic solution to give 10-ml volumes of cell suspension at a final density of 3-6×10^4 /ml. Appropriate volumes of the solutions of each compound were transferred to the cell suspensions, and incubation was continued for 2, 8, 24, or 48 hr. The cells were spun down, resuspended in fresh drug-free medium, and returned to the incubator, then counted with a Coulter Counter 48 hr after treatment with the compound.
^a Data represents an average of at least two experiments; L1210 cell
were treated with compound for 2, 8, 24 and 48 hr. The drugcontaining
medium was removed, cells were washed, complete medium was added, and the
cells were incubated for 48 hr total. Cell counts were obtained 48 hr
after the start of treatment.

Data set [2] concerns L1210 leukemia cells. As to the kind of experiment: Reversal of L1210 growth inhibition by addition of thymidine. Particulars: 5 μM thymidine. The source says: The relationship between potency and alkylating activity was confirmed by the synthesis and evaluation of the non-alkylating morpholino phosphoramidate 1e.
Where [3] appears, read: Mus musculus, B16, 2 hr treatment.
[4] abbreviates: L1210, 48 h, read-out: IC50, treatment time 48 hr.
Setting [5] is: L1210, read-out: IC50, treatment time 2 hr.
The mark [6] stands for this setting: L1210, read-out: IC50, treatment time 8 hr.
The mark [7] stands for this setting: L1210, read-out: IC50, treatment time 24 hr.

Molecules are shown by their SMILES. Like-named read-outs stand apart in the source and are kept apart here.

For `CC1CC(C)(C)NC(CCOP(=O)(OC[C@H]2O[C@@H](n3cc(F)c(=O)[nH]c3=O)C[C@@H]2O)N2CCCCC2)O1` (some centres unmarked) [Compound 4, 5-Fluoro-2'-deoxy-5'-uridyl-[2-(4,4,6-trimethyltetrahydro-1,3-oxazin-2-yl)ethyl]piperidinophosphoramidate], the IC99 in the data set with B16 melanoma cells (setting [3]) came to 98 µM.
With `Cc1ccc(S(=O)(=O)OCCN(C)P(=O)(OCCC2NC(C)(C)CC(C)O2)OC[C@H]2O[C@@H](n3cc(F)c(=O)[nH]c3=O)C[C@@H]2O)cc1` (some centres unmarked) [Compound 1b], the IC50 with L1210 leukemia cells [1] (setting [4]) is 2.5 nM; in the data set on L1210 leukemia cells [1] (setting [5]), 160 nM; in the data set with L1210 leukemia cells [1] (setting [6]), 60 nM; with L1210 leukemia cells [1] (setting [7]), 19 nM. The IC99 with B16 melanoma cells (setting [3]) is 156 µM.
The corresponding values for `Cc1cn([C@H]2C[C@H](O)[C@@H](COP(=O)(OCCC3NC(C)(C)CC(C)O3)N(C)CCBr)O2)c(=O)[nH]c1=O` (some centres unmarked) [Compound 7, Thymidyl-[2-(4,4,-trimethyltetrahydro-1,3-oxazin-2-yl)ethyl]-N-methyl-N-(2-bromoethyl)phosphoramidate] are 590 nM, 13000 nM, 10500 nM, 7000 nM and 165 µM.
In the same order, the values of `CC1CC(C)(C)NC(CCOP(=O)(OC[C@H]2O[C@@H](n3ccc(=O)[nH]c3=O)C[C@@H]2O)N(C)CCBr)O1` (some centres unmarked) [Compound 5, 2'-Deoxy-5'-uridyl-[2-(4,4,-trimethyltetrahydro-1,3-oxazin-2-yl)ethyl]-N-methyl-N-(2-bromoethyl)phosphoramidate] are 425 nM, 20000 nM, 8200 nM, 1300 nM and 318 µM.
Consider `CC1CC(C)(C)NC(CCOP(=O)(OC[C@H]2O[C@@H](n3cc(F)c(=O)[nH]c3=O)C[C@@H]2O)N(C)CCI)O1` (some centres unmarked) [Compound 1d, 5-Fluoro-2'deoxy-5'-uridyl-[2-(4,4,6-trimethyltetrahydro-1,3-oxazin-2-yl)ethyl]-N-methyl-N-(2-iodoethyl)phosphoramidate], for which the IC50 stood at 2 nM in the data set on L1210 leukemia cells [1] (setting [4]), 190 nM in the data set on L1210 leukemia cells [1] (setting [5]), 75 nM with L1210 leukemia cells [1] (setting [6]) and 6 nM in the data set on L1210 leukemia cells [1] (setting [7]). The IC99 in the data set on B16 melanoma cells (setting [3]) is 95 µM.
Regarding `Cc1cn([C@H]2C[C@H](O)[C@@H](COP(=O)(OCCC3NC(C)(C)CC(C)O3)N3CCOCC3)O2)c(=O)[nH]c1=O` (some centres unmarked) [Compound 3, Thymidyl-[2-(4,4,6-trimethyltetrahydro-1,3-oxazin-2-yl)ethyl]morpholinophosphoramidate], the IC99 in the data set with B16 melanoma cells (setting [3]) turned out to be 152 µM.
In the case of `CC1CC(C)(C)NC(CCOP(=O)(OC[C@H]2O[C@@H](n3cc(F)c(=O)[nH]c3=O)C[C@@H]2O)N(C)CCCl)O1` (some centres unmarked) [Compound 1c], the IC50 turned out to be 3.5 nM in the data set on L1210 leukemia cells [1] (setting [4]), 300 nM in the data set with L1210 leukemia cells [1] (setting [5]), 160 nM in the data set on L1210 leukemia cells [1] (setting [6]) and 25 nM in the data set on L1210 leukemia cells [1] (setting [7]). In the data set on B16 melanoma cells (setting [3]), the IC99 stood at 308 µM.
On to `CC1CC(C)(C)NC(CCOP(=O)(OC[C@H]2O[C@@H](n3ccc(=O)[nH]c3=O)C[C@@H]2O)N2CCOCC2)O1` (some centres unmarked) [Compound 2, 2'-Deoxy-5'-uridyl-[2-(4,4,6-trimethyltetrahydro-1,3-oxazin-2-yl)ethyl]morpholinophosphoramidate], for which the IC99 with B16 melanoma cells (setting [3]) was 190 µM.
Take `CC1CC(C)(C)NC(CCOP(=O)(OC[C@H]2O[C@@H](n3cc(F)c(=O)[nH]c3=O)C[C@@H]2O)N(C)CCBr)O1` (some centres unmarked) [Compound 1a, 5-FIuoro-2'-deoxy-5'-uridyl-[2-(4,4,6-trimethyltetrahydro-1,3-oxazin-2-yl)ethyl]-N-methyl-N-(2-bromoethyl)phosphoramidate]: in the data set on L1210 leukemia cells [1] (1a: 2 hr contact time, iodo and tosyl analogs: compared with 1a), the “inhibition of cell proliferation” value is “potent inhibitor of cell proliferation”. The IC50 worked out at 2.5 nM with L1210 leukemia cells [1] (setting [4]), 120 nM with L1210 leukemia cells [1] (setting [5]), 50 nM with L1210 leukemia cells [1] (setting [6]) and 18 nM with L1210 leukemia cells [1] (setting [7]). Also, in the data set with L1210 leukemia cells [1] (treatment times of 2, 8, 24, and 48 hr), the “potency relative to 5-FU (more potent)” value was 1-2 orders of magnitude. The “inhibitory activity on addition of thymidine” value in the data set with L1210 leukemia cells [2] is reported as “completely blocked”. Moreover, the IC99 in the data set on B16 melanoma cells (setting [3]) was 100 µM.
Consider `Cc1cn([C@H]2C[C@H](O)[C@@H](COP(=O)(OCCC3NC(C)(C)CC(C)O3)N(CCBr)CCBr)O2)c(=O)[nH]c1=O` (some centres unmarked) [Compound 8, Thymidyl-[2-(4,4,6-trimethyltetrahydro-1,3-oxazin-2-yl)ethyl]bis-(2-bromoethyl)phosphoramidate], for which the IC99 in the data set on B16 melanoma cells (2 hr treatment) stood at 120 µM.
Consider `O=c1[nH]cc(F)c(=O)[nH]1` [5-Fluorouracil, reference compound], for which the IC50 in the data set with L1210 leukemia cells [1] (L1210, 2 hr treatment, counted 48 hr after start of treatment, average of at least two experiments, read-out: IC50, treatment time 2 hr) was 2200 nM; in the data set on L1210 leukemia cells [1] (L1210, 8 hr treatment, counted 48 hr after start of treatment, average of at least two experiments, read-out: IC50, treatment time 8 hr), 630 nM; with L1210 leukemia cells [1] (L1210, 24 hr treatment, counted 48 hr after start of treatment, average of at least two experiments, read-out: IC50, treatment time 24 hr) it was 220 nM; in the data set on L1210 leukemia cells [1] (L1210, 48 hr treatment, average of at least two experiments, read-out: IC50, treatment time 48 hr), 125 nM.
Regarding `CC1CC(C)(C)NC(CCOP(=O)(OC[C@H]2O[C@@H](n3cc(F)c(=O)[nH]c3=O)C[C@@H]2O)N2CCOCC2)O1` (some centres unmarked) [Compound 1e, 5-Fluoro-2'-deoxy-5'-uridyl-[2-(4,4,6-trimethyltetrahydro-1,3-oxazin-2-yl)ethyl]-morpholinophosphoramidate], the IC50 came out at 150 nM with L1210 leukemia cells [1] (setting [4]), 15000 nM in the data set on L1210 leukemia cells [1] (setting [5]), 5000 nM in the data set with L1210 leukemia cells [1] (setting [6]) and 900 nM in the data set with L1210 leukemia cells [1] (setting [7]). Besides, in the data set with L1210 leukemia cells [1] (long treatment times), the “potency compared with 5-FU” value is reported as “comparable in potency to 5-FU”. Further, the IC99 with B16 melanoma cells (setting [3]) is 216 µM.

For orientation: IC50 means the point on the concentration scale where inhibition reaches its midpoint.
